The values below come from patent US20060052314A1, “Pharmaceutical combination” (priority 2002, published 2006).

pIC50: −log10 of the molar value. Where a name gives a salt, the structure may show the parent alone. Bounds are passed on as bounds.

A short description of series [1]: Test G: conversion to active inhibitor in liver microsomes from humans. The class given is in vitro ADME. The method, then:
(§1) By “prodrug of a thrombin inhibitor”, we include compounds that form a thrombin inhibitor, in an experimentally-detectable amount, and within a predetermined time (e.g. about 1 hour), following oral or parenteral administration (see, for example, Test E below) or, alternatively, following incubation in the presence of liver microsomes (see, for example, Test G below).
A general note: Liver microsomes are a subcellular fraction often used to study metabolism.

A short description of series [2]: Test G: conversion to active inhibitor in liver microsomes from rats. The series is classed as in vitro ADME. The method, then: as §1
The target in a further series is thrombin (Homo sapiens, UniProt P00734). The series is described as follows: Test A: IC50TT. The series is classed as biochemical.

What is called melting point is the temperature, or range, at which the solid turns liquid. In turn, `N=C(N)c1cnc(CNC(=O)[C@@H]2CCN2C(=O)[C@H](O)c2cc(Cl)cc(OC(F)F)c2)nc1` (as salt: TFA) [Example 36, Ph(3-Cl)(5-OCHF2)—(R)CH(OH)C(O)-Aze-NH—CH2-((5-amidino)-2-pyrimidinyl)] showed a melting point of 86 to 87 °C.
On to `NC(=NO)c1ccc(CNC(=O)[C@@H]2CCN2C(=O)[C@H](O)c2cc(Cl)cc(OC(F)F)c2)cc1` [Example 2, Ph(3-Cl)(5-OCHF2)—(R)CH(OH)C(O)-Aze-Pab(OH)], for which the “conversion to the corresponding active inhibitor (free amidine)” value in series [1] and in series [2] was “converted to the corresponding active inhibitor (free amidine)” each time.
As for `CON=C(N)c1ccc(CNC(=O)[C@@H]2CCN2C(=O)[C@H](O)c2cc(Cl)cc(OC(F)(F)F)c2)cc1` [Example 7, Ph(3-Cl)(5-OCF3)—(R)CH(OH)C(O)-Aze-Pab(OMe)], the “conversion to the corresponding active inhibitor (free amidine)” value in series [1] and in series [2] was “converted to the corresponding active inhibitor (free amidine)” in each case.
On to `CON=C(N)c1ccc(CNC(=O)[C@@H]2CCN2C(=O)[C@H](CO)c2cc(Cl)cc(OC(F)(F)F)c2)cc1` [Example 11, Ph(3-Cl)(5-OCF3)—(S)CH(CH2OH)C(O)-Aze-Pab(OMe)], for which the “conversion to the corresponding active inhibitor (free amidine)” value in series [1] and in series [2] was “converted to the corresponding active inhibitor (free amidine)” each time.
As for `CON=C(N)c1ccc(CNC(=O)[C@@H]2CCN2C(=O)[C@H](O)c2cc(Cl)cc(OC(F)F)c2)cc1` [Example 12, Ph(3-Cl)(5-OCHF2)—(R)CH(OH)C(O)-Aze-Pab(OMe)], the “conversion to the corresponding active inhibitor (free amidine)” value in series [1] and in series [2] was “converted to the corresponding active inhibitor (free amidine)” in each case.
Consider `CON=C(N)c1ccc(CNC(=O)[C@@H]2CCN2C(=O)[C@H](O)c2cc(Cl)cc(OCC(F)(F)F)c2)cc1` [Example 16, Ph(3-Cl)(5-OCH2CF3)—(R)CH(OH)C(O)-Aze-Pab(OMe)], for which the “conversion to the corresponding active inhibitor (free amidine)” value in series [1] and in series [2] was “converted to the corresponding active inhibitor (free amidine)” in each case.
`CON=C(N)c1ccc(CNC(=O)[C@@H]2CCN2C(=O)[C@H](O)c2cc(Cl)cc(OCC(F)F)c2)cc1` [Example 18, Ph(3-Cl)(5-OCH2CHF2)—(R)CH(OH)C(O)-Aze-Pab(OMe)]: the “conversion to the corresponding active inhibitor (free amidine)” value in series [1] and in series [2] was “converted to the corresponding active inhibitor (free amidine)” throughout.
Consider `CON=C(N)c1ccc(CNC(=O)[C@@H]2CCN2C(=O)[C@H](O)c2cc(Cl)cc(OCF)c2)cc1` [Example 20, Ph(3-Cl)(5-OCH2F)—(R)CH(OH)C(O)-Aze-Pab(OMe)], for which the “conversion to the corresponding active inhibitor (free amidine)” value in series [1] and in series [2] was “converted to the corresponding active inhibitor (free amidine)” in each case.
With `CON=C(N)c1ccc(CNC(=O)[C@@H]2CCN2C(=O)[C@H](O)c2cc(Cl)cc(OCCF)c2)cc1` [Example 22, Ph(3-Cl)(5-OCH2CH2F)—(R)CH(OH)C(O)-Aze-Pab(OMe)], the “conversion to the corresponding active inhibitor (free amidine)” value in series [1] and in series [2] was “converted to the corresponding active inhibitor (free amidine)” each time.
With `CON=C(N)c1ccc(CNC(=O)[C@@H]2CCN2C(=O)[C@H](O)c2cc(Cl)cc(OC(CF)CF)c2)cc1` [Example 24, Ph(3-Cl)(5-OCH(CH2F)2)—(R)CH(OH)C(O)-Aze-Pab(OMe)], the “conversion to the corresponding active inhibitor (free amidine)” value in series [1] and in series [2] was “converted to the corresponding active inhibitor (free amidine)” each time.
With `CON=C(N)c1ccc(CNC(=O)[C@@H]2CCN2C(=O)[C@H](O)c2cc(F)cc(OC(F)F)c2)cc1` [Example 26, Ph(3-F)(5-OCHF2)—(R)CH(OH)C(O)-Aze-Pab(OMe)], the “conversion to the corresponding active inhibitor (free amidine)” value in series [1] and in series [2] was “converted to the corresponding active inhibitor (free amidine)” each time.
Consider `CON=C(N)c1ccc(CNC(=O)[C@@H]2CCCN2C(=O)[C@H](O)c2cc(Cl)cc(OC(F)F)c2)cc1` [Example 33, Ph(3-Cl)(5-OCHF2)—(R)CH(OH)—C(O)-Pro-Pab(OMe)], for which the “conversion to the corresponding active inhibitor (free amidine)” value in series [1] and in series [2] was “converted to the corresponding active inhibitor (free amidine)” throughout.
Broadly, the pIC50 is the negative decadic logarithm of the IC50, by convention in mol/L. Compound `N=C(N)c1ccc(CNC(=O)[C@@H]2CCN2C(=O)[C@H](O)c2cc(Cl)cc(OC(F)F)c2)cn1` [Example 34, Ph(3-Cl)(5-OCHF2)—(R)CH(OH)C(O)-Aze-NH—CH2-((2-amidino)-5-pyridinyl)] had a negative logarithm of the IC50 (pIC50) on thrombin greater than 7.70.
`N=C(N)c1cnc(CNC(=O)[C@@H]2CCN2C(=O)[C@H](O)c2cc(Cl)cc(OC(F)F)c2)nc1` [Example 36, Ph(3-Cl)(5-OCHF2)—(R)CH(OH)C(O)-Aze-NH—CH2-((5-amidino)-2-pyrimidinyl)] showed a pIC50 against thrombin greater than 5.46.
Consider `CO/N=C(\N)c1cnc(CNC(=O)[C@@H]2CCN2C(=O)[C@H](O)c2cc(Cl)cc(OC(F)F)c2)nc1` [Example 37, Ph(3-Cl)(5-OCHF2)—(R)CH(OH)C(O)-Aze-NH—CH2-((5-methoxyamidino)-2-pyrimidinyl)], for which the “conversion to the corresponding active inhibitor (free amidine)” value in series [1] and in series [2] was “converted to the corresponding active inhibitor (free amidine)” each time.
In the case of `N=C(N)c1ccc(CNC(=O)[C@@H]2CCN2C(=O)[C@H](O)c2cc(Cl)cc(OC(F)F)c2)cc1F` [Example 38, Ph(3-Cl)(5-OCHF2)—(R)CH(OH)C(O)-Aze-Pab(3-F)], the negative-log IC50 (pIC50) against thrombin was greater than 6.82.
Still for that read-out and setting: in the case of `N=C(N)c1cc(F)c(CNC(=O)[C@@H]2CCN2C(=O)[C@H](O)c2cc(Cl)cc(OC(F)F)c2)c(F)c1` [Example 39, Ph(3-Cl)(5-OCHF2)—(R)CH(OH)C(O)-Aze-Pab(2.6-diF)] it was greater than 7.70.
Turning to `CO/N=C(\N)c1cc(F)c(CNC(=O)[C@@H]2CCN2C(=O)[C@H](O)c2cc(Cl)cc(OC(F)F)c2)c(F)c1` [Example 40, Ph(3-Cl)(5-OCHF2)—(R)CH(OH)C(O)-Aze-Pab(2,6-diF)(OMe)], the “conversion to the corresponding active inhibitor (free amidine)” value in series [1] and in series [2] was “converted to the corresponding active inhibitor (free amidine)” each time.
On thrombin, `N=C(N)c1cc(F)c(CNC(=O)[C@@H]2CCN2C(=O)[C@H](O)c2cc(Cl)cc(OC(F)F)c2)cc1F` [Example 41, Ph(3-Cl)(5-OCHF2)—(R)CH(OH)C(O)-Aze-Pab(2,5-diF)] showed a negative logarithm of the IC50 (pIC50) greater than 6.82.
For `CCON=C(N)c1ccc(CNC(=O)[C@@H]2CCN2C(=O)[C@H](O)c2cc(Cl)cc(OC(F)F)c2)cc1` [Example 43, Ph(3-Cl)(5-OCHF2)—(R)CH(OH)C(O)-Aze-Pab(OEt)], the “conversion to the corresponding active inhibitor (free amidine)” value in series [1] and in series [2] was “converted to the corresponding active inhibitor (free amidine)” throughout.
`CC(C)ON=C(N)c1ccc(CNC(=O)[C@@H]2CCN2C(=O)[C@H](O)c2cc(Cl)cc(OC(F)F)c2)cc1` [Example 45, Ph(3-Cl)(5-OCHF2)—(R)CH(OH)C(O)-Aze-Pab(OiPr)]: the “conversion to the corresponding active inhibitor (free amidine)” value in series [1] and in series [2] was “converted to the corresponding active inhibitor (free amidine)” in each case.
Regarding “Ph(3-Br)(5-OCHF2)—(R)CH(OH)C(O)-Aze-Pab(OMe) [Example 29]”, the “conversion to the corresponding active inhibitor (free amidine)” value in series [1] and in series [2] was “converted to the corresponding active inhibitor (free amidine)” throughout.
As to “Ph(3-Cl)(5-OCHF2)—(R)CH(OH)C(O)-Aze-Pab(OcBu) [Example 1]”, the “conversion to the corresponding active inhibitor (free amidine)” value in series [1] and in series [2] was “converted to the corresponding active inhibitor (free amidine)” in each case.
